These results are taken from patent publication US11999794B2, “Human mesothelin chimeric antigen receptors and uses thereof” (Novartis AG, priority 2013, dated 2024).

This test relates to mesoCAR TILs against EMMESO tumor cells. Description: Ex vivo killing and cytokine release assays with blocking agents. Type of test: cell-based, human. As to conditions: blocking agent added ex vivo. As to the method: T cell Effector Assays. Effector T cells were cocultured with firefly luciferase expressing tumor cells at different ratios for a specified period time. At the end of the co-culture incubation period, supernatant was saved for IFN levels by ELISA (Biolegend #430106), wells were washed, and remaining tumor cells were lysed with 1× cell lysis buffer for 30 minutes. The luciferase activity in the lysates was analyzed using the Luciferase Assay System on a GloMax Multi Detection System (Promega.) Results are reported as percent killing based on luciferase activity in wells with tumor, but no T cells. (% killing=100-((RLU from well with effector and target cell coculture)/(RLU from well with target cells)×100)). Effector-to-target ratios represent total T cells per target cell.
Given these expression data, the potential functional importance of specific inhibitory pathways in mesoCAR TILs was studied by introducing available blocking agents during the ex vivo killing and cytokine release assays. […] The relatively high dose of 10 ug/ml anti-PDL1 antibody was based on previously published investigations on cancer immunotherapy.

On to `O.O.O.O.O.O.O.O.O.O=C([O-])[C@@H]1[O][Sb]2([O-])([O][Sb]34([OH])[O][C@H]([C@H](O)CO)[C@H]([O]3)[C@H](C(=O)[O-])[O]4)[O][C@H]([C@H](O)CO)[C@@H]1[O]2.[Na+].[Na+].[Na+]` [SSG, sodium stibogluconate], for which the “killing ability of cryo mesoCAR T cells” value was “slightly inhibited”, the “killing activity of mesoCAR TILs” value was “significantly increased” and the “tumor-induced IFN secretion of mesoCAR TILs” value was “significantly increasing”.
